# According to US20210343368A1, “Method for Engineering Synthetic Cis-Regulatory DNA” (Max-Delbrück-Centrum für Molekulare Medizin in der …, priority 2018, published 2021):
# Tests used:
# Assay type in all cases: cell-based, human
# [1] = tested on: RELA KO MES-hGICs; assay: FACS quantification of MGT #1 in RELA KO MES-hGICs; settings: polyclonal and monoclonal RELA KO cells
# Procedure: FACS analysis: Analysis was performed with FlowJo_V10.
# Canonical NFkB activation can occur downstream TNFα signaling as well as by non-canonical genotoxic stress.
# [2] = tested on: A549-MGT #1low cells; assay: Cytokine screening, microplate reader MGT #1 fluorescence; settings: cytokine alone
# Procedure: Phenotypic screening: Tumor cells were propagated as described above until the screening. Then we seeded 15′000/50 μl/well in 384 well plates (Corning), in Gibco FluoroBrite DMEM medium supplemented with the appropriate growth factors. Cells were dispensed as 50 μl suspension into each well using the SPARK20M Injector system (50 μl injection volume; 100 μl/s injection speed). For non-adherent cells (e.g. GICs), cells were further centrifuge at 1500 rpm for 1 h30 min at 37° C. Bottom reading fluorescence was scanned using a SPARM 20M TECAN plate reader at 37° C. in a 5% CO2-95% air (3% for GICs) in a humidified cassette, with the following settings for mVenus: Monochromator, Ex 505 nm±20 nm, Em 535 nm±7.5 nm, manual gain:198, flashes: 35, Integration time:40 μs. In independent replicas, cell viability was measured with 0.02% AlamarBlue solution in FluoroBrite medium with the following settings: Fluorescence Top reading. Monochromator, Ex 565 nm±10 nm, Em 592 nm±10 nm, manual gain: 88, flashes: 30, Integration time:40 μs.
# DMSO-soluble compounds such as GSK126, were robotically aliquoted using a D300e, whereas cytokines were robotically aliquoted to each well using an Andrew pipetting robot (AndrewAlliance), using the following concentrations:
# To exploit Ezh2 inhibition and MGT #1 as a framework to clarify the signaling basis of EMT in NSCLC cells, we next performed a cytokine screening in GSK126- and vehicle-treated A549-MGT #1^low cells.
# [3] = tested on: MES-hGICs-MGT #1low; assay: Medium-throughput cytokine screening, bottom reading fluorescence; settings: up to 48 hours from stimulation
# Procedure: Phenotypic screening: Tumor cells were propagated as described above until the screening. Then we seeded 15′000/50 μl/well in 384 well plates (Corning), in Gibco FluoroBrite DMEM medium supplemented with the appropriate growth factors. Cells were dispensed as 50 μl suspension into each well using the SPARK20M Injector system (50 μl injection volume; 100 μl/s injection speed). For non-adherent cells (e.g. GICs), cells were further centrifuge at 1500 rpm for 1 h30 min at 37° C. Bottom reading fluorescence was scanned using a SPARM 20M TECAN plate reader at 37° C. in a 5% CO2-95% air (3% for GICs) in a humidified cassette, with the following settings for mVenus: Monochromator, Ex 505 nm±20 nm, Em 535 nm±7.5 nm, manual gain:198, flashes: 35, Integration time:40 μs. In independent replicas, cell viability was measured with 0.02% AlamarBlue solution in FluoroBrite medium with the following settings: Fluorescence Top reading. Monochromator, Ex 565 nm±10 nm, Em 592 nm±10 nm, manual gain: 88, flashes: 30, Integration time:40 μs. […]
# Human GICs and GSCs are consistently propagated under “NBE” conditions, which stands for serum-free Neurobasal media supplemented with basic FGF and EGF^25. […] Next, GICs were stimulated with individual cytokines in biological and technical replica followed by continuous fluorescence bottom reading in a pre-defined time course experiment. […]
# [4] = tested on: MES-hGICs-MGT #1low and PN-hGICs-MGT #1low cells; assay: Phenotypic screening of sLCR response to selected factors, FACS; settings: 48 hours after stimulation
# Procedure: NBE-propagated hGICs were stimulated with selected factors (cytokines, growth factors, compounds) and FACS analyzed 48 hours after stimulation (FIG. 13b). […] (FIG. 13b-c and 17). […] Indeed, TNFα was previously reported as a prominent MES-GBM signaling pathway and inducer of a PN-to-MES transition.
# [5] = tested on: MES-hGICs-MGT #1low and PN-hGICs-MGT #1low cells; assay: Immunoblotting of signaling pathway activation; settings: both cell types
# Procedure: Immunoblot: Cell pellets were lysed in RIPA buffer (20 mM Tris-HCl pH7.5, 150 mM NaCl, 1 mM EDTA, 1 mM EGTA, 1% NP-40) supplemented with a 1× Protease inhibitor cocktail (Roche), 10 mM NaPPi, 10 mM NaF, and 1 mM Sodium orthovanadate. The lysates were sonicated if necessary, and electrophoresis was performed using NuPAGE Bis-Tris precast gels (Life Technologies) in NuPAGE MOPS SDS Running Buffer (50 mM MOPS, 50 mM Tris Base, 0.1% SDS, 1 mM EDTA). Protein was transferred onto Nitrocellulose membranes in transfer buffer (25 mM Tris-HCl pH 7.5, 192 mM Glycine, 20% Methanol) at 120 mA for 1 h. Protein transfer was assessed through staining with Ponceau Red for 5 min, following two washes with TBS-T. Blocking of membranes was done for 1 h at room temperature with 5% BSA in PBS. Dilutions of primary antibodies were prepared in PBS+5% BSA and membranes were incubated over night at 4° C. Following three washes for 5 min with TBS-T, dilutions of appropriate HRP-coupled secondary antibodies were prepared in PBS+5% BSA and membranes were incubated for 45 min at room temperature. After washing three times for 5 min with TBS-T, ECL detection reagent (Sigma; RPN2209) was applied and membranes were exposed to ECL Hyperfilms (Sgima; GE28-9068-37) to detect chemoluminescent signals. […]
# [6] = tested on: MES-hGICs-MGT #1low and PN-hGICs-MGT #1low cells; assay: FACS quantification of Mesenchymal transdifferentiation after Ionizing Radiation and TNFα; settings: TNFα combined with IR 10 Gy
# Excerpt: Irradiation of hGICs: Irradiation was delivered using the XenX irradiator platform (XStrahl Life Sciences), equipped with a 225 kV X-ray tube for targeted irradiation. hGICs cultured in either 6-well plates or 96-well plates were placed in the focal plane of the beamline and exposed to irradiation for a specific time, depending on the target dosage, as calculated with an internal calculation software.
# Mesenchymal Differentiation in GBM was originally described as a dominant event at recurrence after radiotherapy^19 and later linked to acquired radio-resistance via TNF-driven NFKB activation^20. Repeatedly, correlative evidences support a link between inflammatory signaling, EMT and radio-resistance^34. To functionally test whether irradiation may induce Mesenchymal transdifferentiation in cell autonomous manner, MES-hGICs-MGT #1^low and PN-hGICs-MGT #1^low cells were exposed to Ionizing Radiation (IR), alone or in combination with TNFα. […] The residual DNA damage marker […] phosphorylation twenty-four hours post irradiation confirmed the occurrence of both double-strand breaks and repair. However, only a minor proportion of GICs turned to a MGT #1^high state from either genetic background (FIG. 2g-h). […] The data also support the speculation that NFKB activation is augmented as a result of non-canonical signaling caused by genotoxic stress^36.
substance,measurement,setting,value
TNFα,ability to induce MES-GBM signaling,[1],markedly impaired
same,"MGT #1 expression, fluorescence output",[2],leading signaling towards MGT #1 expression
same,MGT #1 / MGT #2 fluorescence normalized to naive GICs,[3],turned into MES-hGICs-MGT #1^high
same,sLCR (MGT #1-2) response normalized to naive hGICs,[4],MES-GBM regulators
same,phosphorylation of signaling proteins,[5],"induced phosphorylation of NFkB-p65, STAT3 and p38-MAPK"
same,Mesenchymal differentiation (MGT #1high),[6],augmented Mesenchymal differentiation
